US7550506B2, “Amino acid derived prodrugs of propofol, compositions and uses thereof” (XenoPort, Inc., priority 2004, dated 2009)

Assays:
[1] = substrate 2.0 μM, 37° C.; for % of Propofol Released from Propofol Prodrugs after 60 min, Human Plasma: no cofactors; for % of Propofol Released from Propofol Prodrugs after 60 min, Human Liver S9 (0.5 mg/mL): NADPH
Method: (§1) The stability of propofol prodrugs were evaluated in one or more in vitro systems using a variety of tissue preparations following methods known in the art. Tissues were obtained from commercial sources (e.g., Pel-Freez Biologicals, Rogers, Ark., or GenTest Corporation, Woburn, Mass.). Experimental conditions used for the in vitro studies are described in Table 1 below. Each preparation was incubated with test compound at 37° C. for one hour. Aliquots (50 μL) were removed at 0, 30, and 60 min and quenched with 0.1% trifluoroacetic acid in acetonitrile. Samples were then centrifuged and analyzed by LC/MS/MS (see Example 134 below for method details). Stability of drug conjugates towards specific enzymes (e.g., peptidases, etc.) were also assessed in vitro by incubation with the purified enzyme.

[2] = Caco-2 homogenate S9 stability; type: in vitro ADME; conditions: Caco-2 homogenate S9 0.5 mg protein per mL, substrate 5.0 μM, 37° C.
Method: Caco-2 Homogenate S9 Stability: Caco-2 cells were grown for 21 days prior to harvesting. Culture medium was removed and cell monolayers were rinsed and scraped off into ice-cold 10 mM sodium phosphate/0.15 M potassium chloride, pH 7.4. Cells were lysed by sonication at 4° C. using a probe sonicator. Lysed cells were then transferred into 1.5 mL centrifuge vials and centrifuged at 9000 g for 20 min at 4° C. The resulting supernatant (Caco-2 cell homogenate S9 fraction) was aliquoted into 0.5 mL vials and stored at −80° C. until used.
For stability studies, prodrug (5 μM) was incubated in Caco-2 homogenate S9 fraction (0.5 mg protein per mL) for 60 min at 37° C. Concentrations of intact prodrug and released propofol were determined at zero time and 60 minutes using LC/MS/MS.

[3] = test system: pancreatin; conditions: 1% (w/v) pancreatin, substrate 5.0 μM, pH 7.5, 37° C.
Method: as §1
Pancreatin Stability: Stability studies were conducted by incubating conjugate (5 μM) with 1% (w/v) pancreatin (Sigma, P-1625, from porcine pancreas) in 0.025 M Tris buffer containing 0.5 M NaCl (pH 7.5) at 37° C. for 60 min. The reaction was stopped by addition of 2 volumes of methanol. After centrifugation at 14,000 rpm for 10 min, the supernatant was removed and analyzed by LC/MS/MS.

[4] = oral dosing in rats (Raoof et al. 1996); cited from earlier work

CC(C)c1cccc(C(C)C)c1OC(=O)OC(C)C(NC(=O)CN)C(=O)O (stereo not shown) [(10), H-Gly-Thr(γ-OC(O)OPropofol)-OH]
% of Propofol Released from Propofol Prodrugs after 60 min, Human Plasma [1]: 2%
% of Propofol Released from Propofol Prodrugs after 60 min, Human Liver S9 (0.5 mg/mL) [1]: 2%
% of Propofol Released from Propofol Prodrugs after 60 min, Caco-2 S9 [2]: 30%
% of Propofol Released from Propofol Prodrugs after 60 min, Pancreatin [3]: 43%

CC(C)c1cccc(C(C)C)c1OC(=O)OC(C)C(NC(=O)C(N)CCCCN)C(=O)O.Cl.Cl (stereo not shown) [(18), H-Lys-Thr(γ-OC(O)OPropofol)-OH Bis-Hydrochloride]
% of Propofol Released from Propofol Prodrugs after 60 min, Human Plasma [1]: 12%
% of Propofol Released from Propofol Prodrugs after 60 min, Human Liver S9 (0.5 mg/mL) [1]: 32%
% of Propofol Released from Propofol Prodrugs after 60 min, Caco-2 S9 [2]: 33%
% of Propofol Released from Propofol Prodrugs after 60 min, Pancreatin [3]: 1%

CC(C)c1cccc(C(C)C)c1OC(=O)OC(C)C(NC(=O)C(N)CCCN=C(N)N)C(=O)O.Cl.Cl.Cl (stereo not shown) [(23), H-Arp-Thr(γ-OC(O)OPropofol)-OH Tris-Hydrochloride]
% of Propofol Released from Propofol Prodrugs after 60 min, Human Plasma [1]: 25%
% of Propofol Released from Propofol Prodrugs after 60 min, Human Liver S9 (0.5 mg/mL) [1]: 93%
% of Propofol Released from Propofol Prodrugs after 60 min, Caco-2 S9 [2]: 100%
% of Propofol Released from Propofol Prodrugs after 60 min, Pancreatin [3]: 4%

CC(C)c1cccc(C(C)C)c1OC(=O)OC(C)C(NC(=O)C(N)CN)C(=O)O.Cl.Cl (stereo not shown) [(24), H-Dap-Thr(γ-OC(O)OPropofol)-OH Bis-Hydrochloride]
% of Propofol Released from Propofol Prodrugs after 60 min, Human Plasma [1]: 0%
% of Propofol Released from Propofol Prodrugs after 60 min, Human Liver S9 (0.5 mg/mL) [1]: 1%
% of Propofol Released from Propofol Prodrugs after 60 min, Caco-2 S9 [2]: 21%
% of Propofol Released from Propofol Prodrugs after 60 min, Pancreatin [3]: 0%

CC(C)c1cccc(C(C)C)c1OC(=O)OC(C)C(NC(=O)C(N)Cc1cnc[nH]1)C(=O)O.Cl.Cl (stereo not shown) [(25), H-His-Thr(γ-OC(O)OPropofol)-OH Bis-Hydrochloride]
% of Propofol Released from Propofol Prodrugs after 60 min, Human Plasma [1]: 0%
% of Propofol Released from Propofol Prodrugs after 60 min, Human Liver S9 (0.5 mg/mL) [1]: 8%
% of Propofol Released from Propofol Prodrugs after 60 min, Caco-2 S9 [2]: 52%
% of Propofol Released from Propofol Prodrugs after 60 min, Pancreatin [3]: 0%

CC(C)CC(N)C(=O)NC(C(=O)O)C(C)OC(=O)Oc1c(C(C)C)cccc1C(C)C.Cl (stereo not shown) [(26), H-Leu-Thr(γ-OC(O)OPropofol)-OH Hydrochloride]
% of Propofol Released from Propofol Prodrugs after 60 min, Human Plasma [1]: 0%
% of Propofol Released from Propofol Prodrugs after 60 min, Human Liver S9 (0.5 mg/mL) [1]: 37%
% of Propofol Released from Propofol Prodrugs after 60 min, Caco-2 S9 [2]: 93%
% of Propofol Released from Propofol Prodrugs after 60 min, Pancreatin [3]: 30%

CSCCC(N)C(=O)NC(C(=O)O)C(C)OC(=O)Oc1c(C(C)C)cccc1C(C)C.Cl (stereo not shown) [(27), H-Met-Thr(γ-OC(O)OPropofol)-OH Hydrochloride]
% of Propofol Released from Propofol Prodrugs after 60 min, Human Plasma [1]: 0%
% of Propofol Released from Propofol Prodrugs after 60 min, Human Liver S9 (0.5 mg/mL) [1]: 0%
% of Propofol Released from Propofol Prodrugs after 60 min, Caco-2 S9 [2]: 20%
% of Propofol Released from Propofol Prodrugs after 60 min, Pancreatin [3]: 0%

CC(C)c1cccc(C(C)C)c1OC(=O)OC(C)C(NC(=O)C(N)CCCN)C(=O)O.Cl.Cl (stereo not shown) [(28), H-Orn-Thr(γ-OC(O)OPropofol)-OH Bis-Hydrochloride]
% of Propofol Released from Propofol Prodrugs after 60 min, Human Plasma [1]: 2%
% of Propofol Released from Propofol Prodrugs after 60 min, Human Liver S9 (0.5 mg/mL) [1]: 11%
% of Propofol Released from Propofol Prodrugs after 60 min, Caco-2 S9 [2]: 54%
% of Propofol Released from Propofol Prodrugs after 60 min, Pancreatin [3]: 0%

CC(C)c1cccc(C(C)C)c1O [propofol, 2,6-diisopropylphenol]
Share of the administered drug that undergoes first pass metabolism [4]: approximately 90%

H-Ala-Thr(γ-OC(O)OPropofol)-OH Hydrochloride [(16)]
% of Propofol Released from Propofol Prodrugs after 60 min, Caco-2 S9 [2]: 33%
